Laboratory results from publication PMC9181188 (International Journal of Molecular Sciences, 2022).
Converted amounts (≈) assume the structure as drawn. Read-outs that look alike come from different tables or passages of the source.

Experiments:
SW480 cells = assay: MTT assay, SW480; type: cell-based, human; details: for IC50: human primary colon cancer, 72 h, MTT, mean ± SD; for SI SW480: SI = IC50 for normal cell line (HaCaT)/IC50 cancer cell line
SW620 cells = assay: MTT assay, SW620; type: cell-based, human; details: for IC50: human metastatic colon cancer, 72 h, MTT, mean ± SD; for SI SW620: SI = IC50 for normal cell line (HaCaT)/IC50 cancer cell line
[1] = target: T1, S. aureus topoisomerase IV (Staphylococcus aureus, UniProt P0C1S7+P0C1U9); assay: S. aureus topoisomerase IV decatenation assay; type: biochemical
T1 construct: purchased Inspiralis
Description: The assay was performed using S. aureus topoisomerase IV […] kit (Inspiralis). Kinetoplast DNA (kDNA) was the substrate for topoisomerase IV.

S. aureus DNA gyrase = S. aureus DNA gyrase (Staphylococcus aureus, UniProt P0A0K8+P20831); assay: biochemical
HaCaT cells = assay: MTT assay, HaCaT normal cells; type: cell-based; details: human immortal keratinocyte cell line, 72 h, mean ± SD
S. aureus ATCC 25923 = assay: MIC, twofold microdilution, standard strain; type: cell-based; details: Staphylococcus aureus, ATCC25923; 18 h of treatment; read-out: MIC S. aureus ATCC 25923
[2] = system: S. epidermidis T 5399 848/19; assay: MIC, clinical S. epidermidis strain; type: cell-based; details: Staphylococcus epidermidis, T5399848/19, quinolone-susceptible, 18 h of treatment
P. aeruginosa ATCC 27853 = assay: MIC, twofold microdilution, standard strain; type: cell-based; details: Pseudomonas aeruginosa, read-out: MIC P. aeruginosa ATCC 27853
[3] = system: standard staphylococci (S. aureus, S. epidermidis); assay: MIC, standard Gram-positive strains as a group; type: cell-based; details: Staphylococcus aureus; range over standard Gram-positive strains; read-out: MIC against standard staphylococci
[4] = system: S. epidermidis ATCC 12228; assay: MIC, twofold microdilution, standard strain; type: cell-based; details: Staphylococcus epidermidis, read-out: MIC S. epidermidis ATCC 12228
PC3 cells = assay: MTT assay, PC3; type: cell-based, human; details: for SI PC3: SI = IC50 for normal cell line (HaCaT)/IC50 cancer cell line; for IC50: Homo sapiens, PC-3, 72 h, human metastatic prostate cancer, 72 h, MTT, mean ± SD
[5] = system: S. epidermidis KR 4313 834/19; assay: MIC, clinical S. epidermidis strain; type: cell-based; details: Staphylococcus epidermidis, KR4313834/19, quinolone-susceptible, 18 h of treatment
S. aureus NCTC 4163 = assay: MIC, twofold microdilution, standard strain; type: cell-based; details: Staphylococcus aureus, NCTC4163; 18 h of treatment; read-out: MIC S. aureus NCTC 4163
[6] = system: S. epidermidis ATCC 35984; assay: MIC, twofold microdilution, standard strain; type: cell-based; details: Staphylococcus epidermidis, ATCC35984; 18 h of treatment; read-out: MIC S. epidermidis ATCC 35984
S. aureus ATCC 6538 = assay: MIC, twofold microdilution, standard strain; type: cell-based; details: Staphylococcus aureus, ATCC6538; 18 h of treatment; read-out: MIC S. aureus ATCC 6538
S. aureus ATCC 29213 = assay: MIC, twofold microdilution, standard strain; type: cell-based; details: Staphylococcus aureus, ATCC29213; 18 h of treatment; read-out: MIC S. aureus ATCC 29213
[7] = system: S. epidermidis T 5501 851/19; assay: MIC, clinical S. epidermidis strain; type: cell-based; details: Staphylococcus epidermidis, T5501851/19, read-out: MIC T 5501 851/19, quinolone-susceptible, 18 h of treatment
M. tuberculosis H37Rv = assay: MABA (microplate Alamar blue assay) MIC; type: cell-based; details: Mycobacterium tuberculosis, 336 h, read-out: MIC M. tuberculosis H37Rv
[8] = system: S. epidermidis T 5253 845/19; assay: MIC, clinical S. epidermidis strain; type: cell-based; details: Staphylococcus epidermidis, T5253845/19, quinolone-resistant, 18 h of treatment
[9] = system: S. epidermidis KR 4358/2 840/19; assay: MIC, clinical S. epidermidis strain; type: cell-based; details: Staphylococcus epidermidis, read-out: MIC KR 4358/2 840/19
[10] = system: S. epidermidis KR 4243 829/19; assay: MIC, clinical S. epidermidis strain; type: cell-based; details: Staphylococcus epidermidis, KR4243829/19, quinolone-susceptible, 18 h of treatment
E. coli ATCC 25922 = assay: MIC, twofold microdilution, standard strain; type: cell-based, Escherichia coli; details: Escherichia coli, ATCC25922; 18 h of treatment; read-out: MIC E. coli ATCC 25922
[11] = system: SW480, SW620, and PC3 cancer cell lines; assay: MTT assay, cancer cell lines as a group; type: cell-based, human; details: Homo sapiens, 72 h, all three cancer cell lines (SW480, SW620, PC3), read-out: IC50 against all tested cancer cell lines
[12] = system: M. tuberculosis Spec. 192 (Sensitive to Tuberculostatics); assay: MABA (microplate Alamar blue assay) MIC; type: cell-based; details: Mycobacterium tuberculosis, 336 h, read-out: MIC M. tuberculosis Spec. 192 (Sensitive to Tuberculostatics)
[13] = system: S. epidermidis KR 4047 825/19; assay: MIC, clinical S. epidermidis strain; type: cell-based; details: Staphylococcus epidermidis, KR4047825/19, quinolone-resistant, 18 h of treatment
[14] = KR4358/2840/19, clinical S. epidermidis, quinolone-susceptible, 18 h of treatment

SMILES	IC50 (HaCaT cells) [µM]	MIC (S. aureus ATCC 25923) [µg/mL]	MIC [2] [µg/mL]	MIC [5] [µg/mL]	MIC (S. aureus NCTC 4163) [µg/mL]	MIC [6] [µg/mL]	MIC (S. aureus ATCC 6538) [µg/mL]	MIC (S. aureus ATCC 29213) [µg/mL]	MIC [7] [µg/mL]	MIC (M. tuberculosis H37Rv) [µg/mL]	MIC [8] [µg/mL]	MIC [10] [µg/mL]	MIC (E. coli ATCC 25922) [µg/mL]	IC50 (SW480 cells; Homo sapiens, SW480, 72 h) [µM]	MIC [13] [µg/mL]	IC50 (SW620 cells; Homo sapiens, SW-620, 72 h) [µM]	MIC (M. tuberculosis H37Rv; 2 weeks of treatment) [µg/mL]	MIC ([12]; 2 weeks of treatment) [µg/mL]	other results
N.N.[Cl][Pt][Cl] [Cisplatin, reference compound]	–	–	–	–	–	–	–	–	–	–	–	–	–	–	–	–	–	–	IC50 (SW480 cells): 10.4 ± 0.9 µM; IC50 (SW620 cells): 6.7 ± 1.1 µM
CC=CC(=O)N1CCN(c2cc3c(cc2F)c(=O)c(C(=O)O)cn3C2CC2)CC1 [Compound 1]	–	–	–	–	–	–	–	–	–	–	–	–	–	–	–	–	–	–	IC50 [1]: > 160 µM; IC50 (S. aureus DNA gyrase): > 160 µM
CC=CC=CC(=O)N1CCN(c2cc3c(cc2F)c(=O)c(C(=O)O)cn3C2CC2)CC1 [Compound 2]	–	–	–	–	–	–	–	–	–	–	–	–	–	–	–	–	–	–	IC50 [1]: 75.2 µM; IC50 (S. aureus DNA gyrase): 79.9 µM
CC(C)=CCCC(C)=CC(=O)N1CCN(c2cc3c(cc2F)c(=O)c(C(=O)O)cn3C2CC2)CC1 [Compound 3]	–	–	–	–	–	–	–	–	–	–	–	–	–	–	–	–	–	–	IC50 [1]: > 133 µM; IC50 (S. aureus DNA gyrase): 107 µM
CCCCCCCC/C=C\CCCCCCCC(=O)N1CCCC2CN(c3c(F)cc4c(=O)c(C(=O)O)cn(C5CC5)c4c3OC)CC21 (stereo not drawn) [Compound 4m, 1-Cyclopropyl-6-fluoro-8-methoxy-7-{1-(Z)-octadec-9-enoyl-octahydro-pyrrolo[3,4-b]pyridin-6-yl}-4-oxo-1,4-dihydro-quinoline-3-carboxylic acid]	92.3 ± 6.1	256 (≈ 384 µM)	> 512	> 512	128 (≈ 192 µM)	256 (≈ 384 µM)	128 (≈ 192 µM)	512 (≈ 769 µM)	> 512	> 512	> 512	> 512	512 (≈ 769 µM)	4.6 ± 1.4	> 512	3.4 ± 0.7	–	–	MIC (P. aeruginosa ATCC 27853; ATCC27853, 18 h of treatment): 128 µg/mL (≈ 192 µM); MIC [3]: > 32 µg/mL; MIC ([4]; ATCC12228, 18 h): > 512 µg/mL; SI PC3 (PC3 cells): 71.0; MIC ([9]; KR4358/2840/19, 18 h): > 512 µg/mL; IC50 [11]: < 5 µM; SI SW480 (SW480 cells): 20.1; MIC [12]: > 512 µg/mL; SI SW620 (SW620 cells): 27.1
CCCCCCCC/C=C\CCCCCCCCCCCC(=O)N1CCCC2CN(c3c(F)cc4c(=O)c(C(=O)O)cn(C5CC5)c4c3OC)CC21 (stereo not drawn) [Compound 7m, 1-Cyclopropyl-7-{1-(Z)-docos-13-enoyl-octahydro-pyrrolo[3,4-b]pyridin-6-yl}-6-fluoro-8-methoxy-4-oxo-1,4-dihydro-quinoline-3-carboxylic acid]	85.2 ± 3.3	512 (≈ 709 µM)	512 (≈ 709 µM)	256 (≈ 355 µM)	256 (≈ 355 µM)	256 (≈ 355 µM)	128 (≈ 177 µM)	512 (≈ 709 µM)	256 (≈ 355 µM)	> 512	> 512	256 (≈ 355 µM)	256 (≈ 355 µM)	48.6 ± 2.6	512 (≈ 709 µM)	51.8 ± 4.3	–	–	MIC (P. aeruginosa ATCC 27853; ATCC27853, 18 h): > 512 µg/mL; MIC [3]: > 32 µg/mL; MIC ([4]; ATCC12228, 18 h of treatment): 512 µg/mL (≈ 709 µM); IC50 (PC3 cells): 36.5 ± 2.3 µM; SI PC3 (PC3 cells): 2.3; MIC [9, 14]: 256 µg/mL (≈ 355 µM); SI SW480 (SW480 cells): 1.8; MIC [12]: > 512 µg/mL; SI SW620 (SW620 cells): 1.6
CCCCCCCCCCCCCCCCCC(=O)N1CCCC2CN(c3c(F)cc4c(=O)c(C(=O)O)cn(C5CC5)c4c3OC)CC21 (stereo not drawn) [Compound 16m, 1-Cyclopropyl-6-fluoro-8-methoxy-7-(1-octadecanoyl-octahydro-pyrrolo[3,4-b]pyridin-6-yl)-4-oxo-1,4-dihydro-quinoline-3-carboxylic acid]	81.5 ± 4.2	64 (≈ 95.8 µM)	512 (≈ 767 µM)	128 (≈ 192 µM)	64 (≈ 95.8 µM)	64 (≈ 95.8 µM)	64 (≈ 95.8 µM)	64 (≈ 95.8 µM)	512 (≈ 767 µM)	> 512	512 (≈ 767 µM)	64 (≈ 95.8 µM)	128 (≈ 192 µM)	< 5	256 (≈ 383 µM)	6.5 ± 1.2	–	–	MIC (P. aeruginosa ATCC 27853; ATCC27853, 18 h): > 512 µg/mL; MIC [3]: > 32 µg/mL; MIC ([4]; ATCC12228, 18 h of treatment): 64 µg/mL (≈ 95.8 µM); SI PC3 (PC3 cells): 34.0; MIC [9, 14]: 512 µg/mL (≈ 767 µM); SI SW480 (SW480 cells): 30.2; IC50 (SW480 cells): 2.7 ± 0.7 µM; MIC [12]: > 512 µg/mL; SI SW620 (SW620 cells): 12.5
COc1cccc2c1C(=O)c1c(O)c3c(c(O)c1C2=O)C[C@@](O)(C(=O)CO)C[C@@H]3O[C@H]1C[C@H](N)[C@H](O)[C@H](C)O1 [Doxorubicin, reference compound]	0.29 ± 0.1	–	–	–	–	–	–	–	–	–	–	–	–	0.75 ± 0.1	–	–	–	–	–
CC[C@@H](CO)NCCN[C@@H](CC)CO [Ethambutol (EMB), Ethambutol, reference compound]	–	–	–	–	–	–	–	–	–	–	–	–	–	–	–	–	2 (≈ 9.79 µM)	2 (≈ 9.79 µM)	–
NNC(=O)c1ccncc1 [Isoniazid (INH), Isoniazid, reference compound]	–	–	–	–	–	–	–	–	–	0.125 (≈ 0.911 µM)	–	–	–	–	–	–	–	0.125 (≈ 0.911 µM)	–
COc1c(N2C[C@@H]3CCCN[C@@H]3C2)c(F)cc2c(=O)c(C(=O)O)cn(C3CC3)c12 [MXF, moxifloxacin, reference compound]	121 ± 6.8	< 0.03	0.1 (≈ 0.249 µM)	0.1 (≈ 0.249 µM)	0.06 (≈ 0.149 µM)	0.06 (≈ 0.149 µM)	0.06 (≈ 0.149 µM)	0.06 (≈ 0.149 µM)	0.1 (≈ 0.249 µM)	–	4 (≈ 9.96 µM)	0.1 (≈ 0.249 µM)	< 0.03	58.4 ± 3.1	2 (≈ 4.98 µM)	54.5 ± 3.8	0.25 (≈ 0.623 µM)	0.125 (≈ 0.311 µM)	MIC (P. aeruginosa ATCC 27853; ATCC27853, 18 h of treatment): > 512 µg/mL; MIC ([4]; ATCC12228, 18 h of treatment): 0.06 µg/mL (≈ 0.149 µM); IC50 (PC3 cells): 46.4 ± 3.2 µM; MIC [9, 14]: 0.1 µg/mL (≈ 0.249 µM)
CO[C@H]1/C=C/O[C@@]2(C)Oc3c(C)c(O)c4c(O)c(c(/C=N/N5CCN(C)CC5)c(O)c4c3C2=O)NC(=O)/C(C)=C\C=C\[C@H](C)[C@H](O)[C@@H](C)[C@@H](O)[C@@H](C)[C@H](OC(C)=O)[C@@H]1C [Rifampicin (RMP), Rifampicin, reference compound]	–	–	–	–	–	–	–	–	–	–	–	–	–	–	–	–	1 (≈ 1.22 µM)	1 (≈ 1.22 µM)	–
[H]/N=C(/N)N[C@H]1[C@H](O)[C@@H](O)[C@H](O[C@@H]2O[C@@H](C)[C@](O)(C=O)[C@H]2O[C@@H]2O[C@@H](CO)[C@H](O)[C@@H](O)[C@@H]2NC)[C@@H](N/C(N)=N\[H])[C@@H]1O [Streptomycin (SM), Streptomycin, reference compound]	–	–	–	–	–	–	–	–	–	–	–	–	–	–	–	–	1 (≈ 1.72 µM)	1 (≈ 1.72 µM)	–
